Molecules are shown by their SMILES.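 Test compounds were applied to cells in 96-well plates for 48 hours at 5 doses. Abbreviation: GI50, concentration required for 50% inhibition of growth.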 The source made the active and inactive calls. No stated cut-off is given here; in the data, active = GI50 up to about 1.1 µM and inactive = higher. Some results are limits rather than exact numbers.

Consider eight compounds from ChEMBL document CHEMBL1201862, “PubChem BioAssay data set” (2004).

Test systems include M14; EKVX; NCI-H226; CAKI-1; SN12C; Malme-3M; MOLT-4; SK-MEL-5; RXF 393; SK-MEL-2; SF-268; MDA-N; UACC-257; SNB-19; OVCAR-4; MDA-MB-231; TK-10; SK-OV-3; CCRF-CEM.
Common to all, as to assay: NCI-60 cell line screen, 48 h

`O=C(NCCCNC(=O)c1ccc2c(O)c(O)ccc2c1)c1ccc2c(O)c(O)ccc2c1`: the GI50 is 26.6 µM (inactive) in the experiment on M14; 32.4 µM (inactive) in the experiment with EKVX; 63 µM (inactive) in the experiment with NCI-H226; > 63 µM (inactive) with CAKI-1; 22.4 µM (inactive) in the experiment with SN12C; > 95.5 µM (inactive) with Malme-3M. The GI50 with MOLT-4 is 20.4 µM (inactive); with SK-MEL-5, 20.3 µM (inactive); with RXF 393, 27.3 µM (inactive); in the experiment with SK-MEL-2, 35.3 µM (inactive); in the experiment on SF-268 it was 22.9 µM (inactive); in the experiment with MDA-N it was 19.1 µM (inactive). For the same compound, the GI50 with UACC-257 was 21.3 µM (inactive); in the experiment with SNB-19 it was 25.7 µM (inactive); in the experiment with OVCAR-4, 57.5 µM (inactive); with MDA-MB-231 it was 29.6 µM (inactive); in the experiment with TK-10, 43.8 µM (inactive); in the experiment with SK-OV-3, > 100 µM (inactive). Besides, in the experiment on CCRF-CEM, the GI50 was 5.18 µM (inactive).
On to `CCCCCCCCCCCCCC(=O)N(CCCCCCCCC)CC(O)C(O)C(OC1OC(CO)C(O)C(O)C1O)C(O)CO` (configuration not stated), for which the GI50 in the experiment with M14 is 20.1 µM (inactive); in the experiment on EKVX, 18 µM (inactive); in the experiment on NCI-H226, 18.7 µM (inactive); in the experiment on CAKI-1, 16.9 µM (inactive); in the experiment with SN12C, 19.8 µM (inactive); in the experiment with Malme-3M, 18.3 µM (inactive). The GI50 in the experiment on MOLT-4 is 24.4 µM (inactive); in the experiment on SK-MEL-5, 19.5 µM (inactive); with RXF 393 it was 24.3 µM (inactive); with SK-MEL-2, 24.6 µM (inactive); in the experiment with SF-268, 19.1 µM (inactive); with MDA-N, 21.6 µM (inactive). Moreover, the GI50 with UACC-257 is 17.1 µM (inactive); in the experiment on SNB-19, 24.5 µM (inactive); in the experiment with OVCAR-4, 24 µM (inactive); in the experiment with MDA-MB-231, 20.7 µM (inactive); in the experiment on TK-10, 18.6 µM (inactive); with SK-OV-3, 14.7 µM (inactive). Also, the GI50 with CCRF-CEM is 26.2 µM (inactive).
As for `COc1ccc(/N=C(/SS/C(=N/c2ccc(OC)cc2)c2ccc([N+](=O)[O-])o2)c2ccc([N+](=O)[O-])o2)cc1`, the GI50 in the experiment with M14 is 1.7 µM (inactive); in the experiment on EKVX it was 1.52 µM (inactive); in the experiment on NCI-H226, 10.1 µM (inactive); in the experiment on CAKI-1 it was 1.92 µM (inactive); in the experiment on SN12C, 1.95 µM (inactive); in the experiment on Malme-3M, 2.02 µM (inactive). For the same compound, the GI50 in the experiment with MOLT-4 is 4.08 µM (inactive); in the experiment on SK-MEL-5, 5.75 µM (inactive); in the experiment on RXF 393, 0.695 µM (active); in the experiment with SK-MEL-2, 2.08 µM (inactive); in the experiment on SF-268, 1.89 µM (inactive); in the experiment with MDA-N, 2.07 µM (inactive). Besides, the GI50 was 2.06 µM (inactive) in the experiment on UACC-257; 1.38 µM (inactive) in the experiment on SNB-19; 1.42 µM (inactive) in the experiment with OVCAR-4; 2.77 µM (inactive) with MDA-MB-231; 2.38 µM (inactive) in the experiment with TK-10; 2.79 µM (inactive) in the experiment with SK-OV-3. In addition, the GI50 in the experiment with CCRF-CEM was 2.08 µM (inactive).
As for `C/C(=C\c1ccccc1)C(=O)NCc1ccc(C(=O)NCCC(C)C)cc1`, the GI50 in the experiment on M14 was > 100 µM (inactive); in the experiment with EKVX it was 76.4 µM (inactive); in the experiment on NCI-H226, 40.5 µM (inactive); in the experiment on CAKI-1 it was 93.8 µM (inactive); in the experiment on SN12C, 52.7 µM (inactive); in the experiment with Malme-3M, > 100 µM (inactive). In addition, the GI50 in the experiment with MOLT-4 is > 100 µM (inactive); in the experiment on SK-MEL-5 it was > 100 µM (inactive); with RXF 393 it was 20.8 µM (inactive); with SK-MEL-2, > 100 µM (inactive); in the experiment on SF-268 it was 42.6 µM (inactive); in the experiment with MDA-N it was > 100 µM (inactive). Moreover, the GI50 with UACC-257 was > 100 µM (inactive); with SNB-19, 36.1 µM (inactive); in the experiment on OVCAR-4 it was > 100 µM (inactive); in the experiment on MDA-MB-231, 85.3 µM (inactive); with TK-10, > 100 µM (inactive); with SK-OV-3, 25.2 µM (inactive). The GI50 in the experiment on CCRF-CEM is > 100 µM (inactive).
With `Cc1c2c(c(C)n1-c1ccccc1)C(=O)N(CCCCN1CCN(c3ccccc3)CC1)C2=O`, the GI50 is 9.53 µM (inactive) in the experiment with M14; 10 µM (inactive) with EKVX; 9.68 µM (inactive) with NCI-H226; 31.1 µM (inactive) in the experiment on CAKI-1; 13.1 µM (inactive) in the experiment with SN12C; 4.03 µM (inactive) with Malme-3M. Moreover, the GI50 in the experiment on MOLT-4 was 5.71 µM (inactive); with SK-MEL-5, 3.7 µM (inactive); in the experiment with RXF 393, 14.5 µM (inactive); in the experiment on SK-MEL-2 it was 22.3 µM (inactive); in the experiment on SF-268, 37.8 µM (inactive); in the experiment on MDA-N it was 9.57 µM (inactive). Further, the GI50 in the experiment with UACC-257 was 5.36 µM (inactive); in the experiment on SNB-19 it was 29 µM (inactive); in the experiment with OVCAR-4, 13 µM (inactive); in the experiment on MDA-MB-231 it was 10 µM (inactive); with TK-10, 30.2 µM (inactive); in the experiment on SK-OV-3, 27.4 µM (inactive). Further, the GI50 in the experiment with CCRF-CEM was 7.21 µM (inactive).
In the case of `O=C(CC(NC(=O)C(F)(F)F)C(=O)O)OCc1ccccc1` (configuration not stated), the GI50 in the experiment on M14, in the experiment with EKVX, with NCI-H226, in the experiment with CAKI-1, in the experiment on SN12C and in the experiment with Malme-3M was > 100 µM (inactive) in each case. The GI50 in the experiment with MOLT-4, in the experiment with SK-MEL-5, in the experiment with RXF 393, in the experiment with SK-MEL-2, with SF-268 and in the experiment with MDA-N was > 100 µM (inactive) in each case. The GI50 with UACC-257, with SNB-19, in the experiment on OVCAR-4, in the experiment on MDA-MB-231, in the experiment with TK-10 and with SK-OV-3 was > 100 µM (inactive) throughout. The GI50 with CCRF-CEM is > 100 µM (inactive).
`Cc1ccc(Nc2cc(=O)[nH]c(=S)[nH]2)cc1`: the GI50 in the experiment on M14, in the experiment with EKVX, in the experiment with NCI-H226, in the experiment on CAKI-1, with SN12C and with Malme-3M was > 100 µM (inactive) in each case. The GI50 in the experiment with MOLT-4, in the experiment on SK-MEL-5, in the experiment with RXF 393, with SK-MEL-2, with SF-268 and in the experiment with MDA-N was > 100 µM (inactive) in each case. Moreover, the GI50 with UACC-257, with SNB-19, in the experiment on OVCAR-4, with MDA-MB-231, in the experiment with TK-10 and with SK-OV-3 was > 100 µM (inactive) in each case. Also, the GI50 in the experiment on CCRF-CEM is > 100 µM (inactive).
As to `Cc1csc2c1-n1cccc1C2=O`, the GI50 is > 100 µM (inactive) in the experiment on M14; 64.3 µM (inactive) in the experiment on EKVX; > 100 µM (inactive) in the experiment with NCI-H226; 65.8 µM (inactive) with CAKI-1; > 100 µM (inactive) with SN12C; > 100 µM (inactive) in the experiment on Malme-3M. Moreover, the GI50 in the experiment with MOLT-4 was > 100 µM (inactive); with SK-MEL-5 it was > 100 µM (inactive); in the experiment with RXF 393, 98.4 µM (inactive); with SK-MEL-2, > 100 µM (inactive); with SF-268, > 100 µM (inactive); in the experiment on MDA-N it was 99.1 µM (inactive). The GI50 with UACC-257, in the experiment on SNB-19, in the experiment on OVCAR-4, in the experiment with MDA-MB-231, in the experiment with TK-10 and in the experiment on SK-OV-3 was > 100 µM (inactive) each time. Moreover, the GI50 with CCRF-CEM is > 100 µM (inactive).
